In patent US20250135022A1, “METHODS FOR THE USE OF A B7-H3 ANTIBODY-DRUG CONJUGATE IN COMBINATION WITH A PD-1 X CTLA-4 BISPECIFIC MOLECULE” (MACROGENICS, INC., priority 2022, published 2025):

Legend:
Calu-6 lung cancer cells = assay: Anti-tumor activity against subcutaneously implanted Calu-6 xenograft in SCID CES1c-KO mouse model; assay type: in vivo, SCID CES1c-KO mice; parameters: key to Anti-Tumor Activity: Highly Active: A T/C<10% is considered highly active; Active: a T/C≤42% is the minimum level of anti-tumor activity; Inactive: a T/C value of >42% is inactive
Procedure: In brief, ˜5×10^6 tumor cells (suspended in 1:1 media and MATRIGEL®) were subcutaneously implanted into the flank of female SCID CES1c-KO mice (Charles River Laboratories). When tumors had reached a volume of approximately 50-180 mm^3 (average 105 mm^3) on day 16, the mice were randomized and MGC018 or control vehicle were administered intravenously. In these studies, mice were administered either a single dose (1 mg/kg or 3 mg/kg, QW×1) of MGC018 or a fractionated dose of MGC018 (0.3 mg/kg or 1 mg/kg) once a week for 4 weeks (QW×4W). Vehicle was administered as a control on day 16. Tumors were measured twice weekly by orthogonal measurements with electronic calipers, with tumor volumes calculated as: (length×width×height)/2. The tumor volume (relative to control) was determined (“T/C”). A finding that the tumor volume of treated animals had decreased to ≤5 mm^3 during the study period was considered to denote a Complete Regression (“CR”) and a Partial Regression (“PR”) was defined when tumors were reduced by 50% or greater from day of dosing at any point during the study.

[1] = test system: MDA-MB-468 triple negative breast cancer cells; assay: Anti-tumor activity against subcutaneously implanted MDA-MB-468 xenograft in SCID CES1c-KO mouse model; assay type: in vivo, SCID CES1c-KO mice; parameters: key to Anti-Tumor Activity: Highly Active: A T/C<10% is considered highly active; Active: a T/C≤42% is the minimum level of anti-tumor activity; Inactive: a T/C value of >42% is inactive
Procedure: In brief, ˜5×10^6 tumor cells (suspended in 1:1 media and MATRIGEL®) were subcutaneously implanted into the flank of female SCID CES1c-KO mice (Charles River Laboratories). When tumors had reached a volume of approximately 45-135 mm^3 (average 73 mm^3) on day 54, the mice were randomized and MGC018 or control vehicle were administered intravenously. In these studies, mice were administered either a single dose (1 mg/kg or 3 mg/kg, QW×1) of MGC018 or a fractionated dose of MGC018 (0.3 mg/kg or 1 mg/kg) once a week for 4 weeks (QW×4W). Vehicle was administered as a control on day 54. Tumors were measured twice weekly by orthogonal measurements with electronic calipers, with tumor volumes calculated as: (length×width×height)/2. The tumor volume (relative to control) was determined (“T/C”). A finding that the tumor volume of treated animals had decreased to ≤5 mm^3 during the study period was considered to denote a Complete Regression (“CR”) and a Partial Regression (“PR”) was defined when tumors were reduced by 50% or greater from day of dosing at any point during the study.

[2] = Population pharmacokinetic (PPK) modeling of clinical PK data from a dose escalation trial; assay type: in vivo, human
Procedure: To analyze the pharmacokinetics of single and fractionated dose administration of MGC018, population pharmacokinetic (PPK) modeling was performed on clinical PK data from a dose escalation trial of MGC018. The initial model was based on data from 52 patients (516 ADC observations, 495 payload observations) and later updated with data from a total of 122 patients. MGC018 concentration values below quantification limit (BQL) were excluded from the analysis but were retained (commented out) in the data set.
The PPK analysis was conducted via nonlinear mixed-effects modeling with INTERACTION option (FOCEI) method using the NONMEM software, Version 7.5.0 (ICON Development Solutions). A quasi-steady-state (QSS) approximation of the target-mediated drug disposition (TMDD) model was used to describe the observed ADC data. All clearance and volume parameters were scaled allometrically. Goodness-of-fit plots and diagnostics (including standard error of the estimates) were used to evaluate the model fit. Due to the small sample size (52 subjects) no formal covariate analysis was attempted, although dependence of model parameters on weight, dose, and sex was investigated using diagnostic plots or by inclusion in the model. Ability of the model to describe strong covariate relationships identified by the model was tested by stratifying the diagnostic plots and model evaluation procedures by the covariates of interest. Specifically, the diagnostics and the predictive check procedures were stratified by dose (cohort).
Of the models evaluated, a linear 2-compartment with individual random effects on clearance (CL), central volume (Vc), peripheral volume (VP), inter-compartment clearance (Q), and proportional residual variability) best described the observed ADC data and advanced for further development of the combined ADC-free payload model. The free payload was described by a 1-compartment model with random effects on free payload clearance (CLTOX) and volume (VTOX) parameters with the input (from ADC) to both the central and delay compartments, with the random effects on the delay rate constant Ktr, CLTOX, and VTOX. The final model (Model 151) was selected based on diagnostics and goodness-of-fit and used to estimate MGC018 PK parameters. According to the model, elimination from the ADC was directed to the free payload, to the delay and central free payload compartments. Approximately equal fractions of ADC elimination went to each of these compartments. […] Thus, the free payload kinetics were defined by the kinetics of ADC and delay between ADC elimination and input to the free payload central compartment

[3] = 0.3 mg/kg, QW × 4W, intravenous
[4] = fractionated 0.3 and 1 mg/kg QW×4W vs single 1 or 3 mg/kg QW×1

Substance: MGC018: B7-H3-ADC: Light and Heavy Chain of anti-B7-H3 hmAb-A (SEQ ID NO:19, 20) conjugated via maleimide, valine-citrulline, para-aminobenzyloxycarbonyl linker to seco-DUBA payload
- % T/C at Day 50 (Calu-6 lung cancer cells; [3]): 61%
- Anti-Tumor Activity (Calu-6 lung cancer cells; [3]): Inactive
- CR (complete regression) (Calu-6 lung cancer cells; [3]): 0/6
- PR (partial regression) (Calu-6 lung cancer cells; [3]): 0/6
- % T/C at Day 50 (Calu-6 lung cancer cells; 1 mg/kg, QW × 1, intravenous): 49%
- Anti-Tumor Activity (Calu-6 lung cancer cells; 1 mg/kg, QW × 1, intravenous): Inactive
- CR (complete regression) (Calu-6 lung cancer cells; 1 mg/kg, QW × 1, intravenous): 0/6
- PR (partial regression) (Calu-6 lung cancer cells; 1 mg/kg, QW × 1, intravenous): 0/6
- % T/C at Day 50 (Calu-6 lung cancer cells; 1 mg/kg, QW × 4W, intravenous): 17%
- Anti-Tumor Activity (Calu-6 lung cancer cells; 1 mg/kg, QW × 4W, intravenous): Active
- CR (complete regression) (Calu-6 lung cancer cells; 1 mg/kg, QW × 4W, intravenous): 0/6
- PR (partial regression) (Calu-6 lung cancer cells; 1 mg/kg, QW × 4W, intravenous): 0/6
- % T/C at Day 50 (Calu-6 lung cancer cells; 3 mg/kg, QW × 1, intravenous): 25%
- Anti-Tumor Activity (Calu-6 lung cancer cells; 3 mg/kg, QW × 1, intravenous): Active
- CR (complete regression) (Calu-6 lung cancer cells; 3 mg/kg, QW × 1, intravenous): 0/6
- PR (partial regression) (Calu-6 lung cancer cells; 3 mg/kg, QW × 1, intravenous): 0/6
- anti-tumor activity of fractionated dose compared with single dose (Calu-6 lung cancer cells; [4]): near equivalent anti-tumor activity
- % T/C at Day 70 [1, 3]: 64%
- Anti-Tumor Activity [1, 3]: Inactive
- CR (complete regression) [1, 3]: 0/5
- PR (partial regression) [1, 3]: 2/5
- % T/C at Day 70 ([1]; 1 mg/kg, QW × 1, intravenous): 26%
- Anti-Tumor Activity ([1]; 1 mg/kg, QW × 1, intravenous): Active
- CR (complete regression) ([1]; 1 mg/kg, QW × 1, intravenous): 0/5
- PR (partial regression) ([1]; 1 mg/kg, QW × 1, intravenous): 4/5
- % T/C at Day 70 ([1]; 1 mg/kg, QW × 4W, intravenous): 22%
- Anti-Tumor Activity ([1]; 1 mg/kg, QW × 4W, intravenous): Active
- CR (complete regression) ([1]; 1 mg/kg, QW × 4W, intravenous): 3/5
- PR (partial regression) ([1]; 1 mg/kg, QW × 4W, intravenous): 5/5
- % T/C at Day 70 ([1]; 3 mg/kg, QW × 1, intravenous): 12%
- Anti-Tumor Activity ([1]; 3 mg/kg, QW × 1, intravenous): Active
- CR (complete regression) ([1]; 3 mg/kg, QW × 1, intravenous): 5/5
- PR (partial regression) ([1]; 3 mg/kg, QW × 1, intravenous): 5/5
- anti-tumor activity of fractionated dose compared with single dose [1, 4]: near equivalent anti-tumor activity
- central volume (V) ([2]; ADC, typical 75 kg subject): 3.72 L
- clearance (CL) ([2]; ADC, typical 75 kg subject): 1.68 L/day
- distribution half-life (t1/2 dist) ([2]; ADC, typical 75 kg subject): 35.5 h
- inter-compartment clearance (Q) ([2]; ADC, typical 75 kg subject): 0.0549 L/day
- peripheral volume (Vp) ([2]; ADC, typical 75 kg subject): 0.700 L
- terminal half-life (t1/2 term) ([2]; ADC, typical 75 kg subject): 220 h
- half-life corresponding to delay rate constant ([2]; Model 151): 130 h
- delay rate constant (Ktr) ([2]; delay between ADC elimination and input to free payload central compartment, Model 151): 0.128 day⁻¹
- free payload elimination rate constant KTOX=CLTOX/VTOX ([2]; free payload, Model 151): 52.5 day⁻¹
- half-life corresponding to free payload elimination rate constant ([2]; free payload, Model 151): about 20 minutes
